The subject of this assay is sebocytes. The assay is described as follows: In vitro sebocyte lipogenesis assay (Nile red lipid accumulation). In kind it is cell-based, human.

Molecules are shown by their SMILES.

As to `CCCCCC1=CC(=O)C=C(OC)C1=O` [Primin, 2-methoxy-6-pentyl-1,4-benzoquinone], the Induction of lipogenesis runs as follows: (Primin concentration 0.3 μg/mL) 17.9%; (Primin concentration 1.0 μg/mL) 21.3%; (Primin concentration 3.0 μg/mL) 41.5%. The “Effect on lipogenesis in sebocytes (in words)” value (summary of Tables 1 and 2) was “has lipogenic activity”.

For the origin of these results see patent US7381433B1, “Compositions containing an extract of a primula denticulata and use thereof” (Johnson & Johnson Consumer Companies, Inc., priority 2007, dated 2008).
